Values of other authors in patent publication US20050169997A1, “Method for preparing resinates” (priority 2002, published 2005).

SMILES: COc1ccc2c(c1)c(CC(=O)O)c(C)n2C(=O)c1ccc(Cl)cc1 [indomethacin]
- solubility of indomethacin in water: 14 ppm
